Assay [1] deals with T1, histidine tagged recombinant Human Lymphocyte-Specific Protein Tyrosine Kinase (Lck) (Homo sapiens, UniProt P06239).
T1 construct: histidine tag
The experiment in a line: Lck kinase inhibition assay (fluorescence polarization, KinEASE FP Fluorescein Green). The following applies: 10 μM ATP, 250 μM substrate, 60 minutes, room temperature; Ki from IC50 by Cheng-Prusoff. Format: biochemical. The procedure: Kinase Binding Btk and Lck Kinase Inhibition Assay
Fluorescence polarization-based kinase assays were performed in 384 well-plate format using histidine tagged recombinant human full-length Bruton Agammaglobulinemia Tyrosine Kinase (Btk) or histidine tagged recombinant Human Lymphocyte-Specific Protein Tyrosine Kinase (Lck) and a modified protocol of the KinEASE™ FP Fluorescein Green Assay supplied from Millipore. Kinase reaction were performed at room temperature for 60 minutes in presence of 250 μM substrate, 10 μM ATP and variable test article concentrations. The reaction was stopped with EDTA/kinease detection reagents and the polarization measured on a Tecan 500 instrument. From the dose-response curve obtained, the IC50 was calculated using Graph Pad Prisms® using a non-linear fit curve. The Km for ATP on each enzyme was experimentally determined and the Ki values calculated using the Cheng-Prusoff equation (see: Cheng Y, Prusoff W H. (1973) Relationship between the inhibition constant (K1) and the concentration of inhibitor which causes 50 percent inhibition (I50) of an enzymatic reaction”. Biochem Pharmacol 22 (23): 3099-108).
ki values are reported in Tables 2 and 3: • a—Less than 100 nM; b—less than 1000 nM; c—more than 1000 nM
On the technique in general: Fluorescence polarisation rises when a labelled molecule tumbles more slowly, as on binding a larger partner.

A further assay has as its system mouse splenocytes. The experiment in a line: Splenic cell proliferation assay (anti-IgM stimulated B cell proliferation, Cell Titer-Glo). Format: cell-based. Particulars: Splenocyte; CD1 mouse splenocytes, 1 h pre-treatment, 2.5 ug/ml anti-IgM F(ab')2 for 72 h; read-out: EC50 (nM), Inhibition of splenic cell proliferation. An outline of the steps: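 Splenocytes from 6-week male CD1 mice, depleted of adherent cells, were pre-treated in triplicate with compound curves up to 10,000 nM for 1 h. B-cell proliferation was then driven by 2.5 ug/ml anti-IgM F(ab′)2 for 72 h, read by Cell Titer-Glo. EC50 was calculated relative to vehicle controls.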
A general note: Cellular ATP, detected with luciferase, serves as a proxy for viable cell number.

In assay [2] the target is T2, histidine tagged recombinant human full-length Bruton Agammaglobulinemia Tyrosine Kinase (Btk) (Homo sapiens, UniProt Q06187).
T2 construct: recombinant human full-length Bruton Agammaglobulinemia Tyrosine Kinase (Btk); histidine tag
Description: Btk kinase inhibition assay (fluorescence polarization, KinEASE FP Fluorescein Green). The following applies: 10 μM ATP, 250 μM substrate, 60 minutes, room temperature; Ki from IC50 by Cheng-Prusoff; read-out: ki50 (nM), Inhibition of Btk. It is filed as biochemical. In short, it runs like this:
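His-tagged recombinant human kinase (full-length Btk, or Lck) reacted 60 min at room temperature with 250 μM substrate and 10 μM ATP; stopped with EDTA and detection reagents, read by fluorescence polarization. IC50 from non-linear dose-response fit, converted to Ki by Cheng-Prusoff using each enzyme's measured ATP Km.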

T1 sequence (P06239 whole entry): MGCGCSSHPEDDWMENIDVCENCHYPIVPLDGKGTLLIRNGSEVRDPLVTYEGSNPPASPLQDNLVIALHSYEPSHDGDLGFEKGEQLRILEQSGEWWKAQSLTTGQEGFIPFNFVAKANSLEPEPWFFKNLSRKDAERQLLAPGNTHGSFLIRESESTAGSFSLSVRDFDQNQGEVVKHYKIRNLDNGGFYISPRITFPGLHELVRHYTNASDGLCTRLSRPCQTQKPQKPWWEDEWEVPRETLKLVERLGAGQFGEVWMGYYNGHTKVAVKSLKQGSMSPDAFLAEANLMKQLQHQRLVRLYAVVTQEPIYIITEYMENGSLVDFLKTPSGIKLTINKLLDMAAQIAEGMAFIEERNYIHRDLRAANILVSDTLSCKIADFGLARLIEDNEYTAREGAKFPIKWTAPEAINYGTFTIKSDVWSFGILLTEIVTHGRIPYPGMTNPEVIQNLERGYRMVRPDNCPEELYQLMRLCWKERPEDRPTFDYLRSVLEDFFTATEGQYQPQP
T2 sequence (Q06187 whole entry): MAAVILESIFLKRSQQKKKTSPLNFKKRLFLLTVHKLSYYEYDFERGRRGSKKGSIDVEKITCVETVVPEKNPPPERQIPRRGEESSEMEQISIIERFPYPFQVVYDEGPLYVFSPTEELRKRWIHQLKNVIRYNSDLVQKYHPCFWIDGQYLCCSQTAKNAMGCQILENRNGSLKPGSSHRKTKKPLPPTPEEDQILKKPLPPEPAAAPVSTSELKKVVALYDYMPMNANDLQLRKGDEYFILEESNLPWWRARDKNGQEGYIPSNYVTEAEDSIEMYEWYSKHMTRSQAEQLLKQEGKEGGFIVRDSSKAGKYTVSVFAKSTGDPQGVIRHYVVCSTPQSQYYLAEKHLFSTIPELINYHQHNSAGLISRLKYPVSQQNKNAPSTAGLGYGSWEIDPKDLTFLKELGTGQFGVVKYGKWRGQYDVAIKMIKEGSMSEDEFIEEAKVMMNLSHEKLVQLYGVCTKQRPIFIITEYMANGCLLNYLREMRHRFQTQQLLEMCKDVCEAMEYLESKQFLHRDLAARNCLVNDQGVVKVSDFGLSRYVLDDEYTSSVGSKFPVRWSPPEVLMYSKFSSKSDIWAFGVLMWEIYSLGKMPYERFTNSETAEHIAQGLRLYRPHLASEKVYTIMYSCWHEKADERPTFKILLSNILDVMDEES

On to `Nc1ncnc2c3c(n(-c4ccc(Oc5ccccc5)cc4)c12)COC3CCCOCc1ccccc1` (stereo not drawn) [Compound 26], for which the results for the Ki in assay [1] and in assay [2] were below 1000 nM and above 1000 nM, respectively. Also, the EC50 in the assay with mouse splenocytes is above 1000 nM.
For `CC1OCc2c1c1ncnc(N)c1n2-c1ccc(Oc2ccccc2F)cc1` (stereo not drawn) [Compound 34], the Ki in assay [1] and in assay [2] was below 100 nM each time. The EC50 in the assay with mouse splenocytes is above 1000 nM.
On to `CC1OCc2c1c1ncnc(N)c1n2-c1ccc(Oc2ccccc2Cl)cc1` (stereo not drawn) [Compound 33], for which the Ki was below 100 nM in assay [1] and below 1000 nM in assay [2]. For the same compound, in the assay with mouse splenocytes, the EC50 was in the range of 100 to 1000 nM.
In the same order, the values of `CC1OCc2c1c1ncnc(N)c1n2-c1ccc(Oc2cccc([N+](=O)[O-])c2)cc1` (stereo not drawn) [Compound 45] are below 1000 nM, above 1000 nM and above 1000 nM.
In the same order, the values of `CC1OCc2c1c1ncnc(N)c1n2-c1ccc(Oc2ccccc2)cc1` (stereo not drawn) [Compound 20] are below 100 nM, below 100 nM and 100 to 1000 nM.
In the same order, the values of `CCN1Cc2c(n(-c3ccc(Oc4ccccc4)cc3)c3c(N)ncnc23)C1` [Compound 14] are below 1000 nM, above 1000 nM and above 1000 nM.
`Nc1ncnc2c3c(n(-c4ccc(Oc5ccccc5)cc4)c12)CCCC3` [Compound 13]: the Ki in assay [1] and in assay [2] was below 1000 nM each time. The EC50 with mouse splenocytes was above 1000 nM.
For the compound `CC1OCc2c1c1ncnc(N)c1n2-c1ccc(Oc2cccc(OCc3ccc(F)cc3)c2)cc1` (stereo not drawn) [Compound 49], the Ki in assay [1] and in assay [2] was below 100 nM each time. For the same compound, in the assay with mouse splenocytes, the EC50 is 100 to 1000 nM.
As to `CC1OCc2c1c1ncnc(N)c1n2-c1ccc(Oc2cccc(OCc3ccc(C(F)(F)F)cc3)c2)cc1` (stereo not drawn) [Compound 57], the Ki in assay [1] and in assay [2] was below 100 nM throughout. Moreover, in the assay on mouse splenocytes, the EC50 is above 1000 nM.
With `Nc1ncnc2c3c(n(-c4ccc(Oc5ccc(Cl)cc5)cc4)c12)CCC3` [Compound 4], the Ki in assay [1] and in assay [2] was below 1000 nM in each case. In the assay on mouse splenocytes, the EC50 was above 1000 nM.
In the case of `Nc1ncnc2c3c(n(-c4ccc(Oc5ccccc5)cc4)c12)COC3` [Compound 21], the results for the Ki in assay [1] and in assay [2] were below 100 nM and below 1000 nM, respectively. Further, the EC50 in the assay on mouse splenocytes is above 1000 nM.
In the same order, the values of `CC1OCc2c1c1ncnc(N)c1n2-c1ccc(Oc2cccc(C(F)(F)F)c2)cc1` (stereo not drawn) [Compound 29] are below 1000 nM, below 1000 nM and 100 to 1000 nM.
In the same order, the values of `CC1OCc2c1c1ncnc(N)c1n2-c1ccc(Oc2cccc(C#N)c2)cc1` (stereo not drawn) [Compound 37] are above 1000 nM, above 1000 nM and above 1000 nM.

Values taken from patent US9624239B2, “Protein kinase inhibitors” (Pharmascience Inc., priority 2011, dated 2017).
